Here are results for 25 compounds from patent US10287301B2 (Achillion Pharmaceuticals, Inc., priority 2015, dated 2019).

Sequence of Human Factor D (P00746 26-253): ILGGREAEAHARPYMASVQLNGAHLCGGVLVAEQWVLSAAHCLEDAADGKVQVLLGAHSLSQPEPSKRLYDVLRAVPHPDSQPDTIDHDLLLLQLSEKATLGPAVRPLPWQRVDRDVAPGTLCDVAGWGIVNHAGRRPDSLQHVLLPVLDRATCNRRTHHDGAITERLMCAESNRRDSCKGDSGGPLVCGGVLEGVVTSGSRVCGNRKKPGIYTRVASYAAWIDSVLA

In this test the target is Human Factor D (Homo sapiens (Human), UniProt P00746). Nature of the test: Human Factor D Assay. The note with it: Table 3; Human Factor D 80 nM, substrate Z-L-Lys-SBzl; read-out: IC50 (Stars). In kind it is biochemical. Put shortly:
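Factor D (from human serum) 80 nM final + cpd, 5 min RT, 50 mM Tris/1M NaCl pH 7.5; add Z-L-Lys-SBzl 100 μM and DTNB 100 μM final. IC50 by nonlinear fit of rates vs [cpd].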
Regarding `CC(=O)c1cn(CC(=O)N2C[C@H](F)C[C@H]2C(=O)NCc2ccccc2)c2ccc(-c3cnc(C)nc3)cc12` [Compound 442, (2S,4R)-1-(2-(3-Acetyl-5-(2-methylpyrimidin-5-yl)-1H-indol-1-yl)acetyl)-N-benzyl-4-fluoropyrrolidine-2-carboxamide], the IC50 – broadly, the point on the concentration scale where inhibition reaches its midpoint – was less than 1 µM. In the case of `CC(=O)c1cn(CC(=O)N2C[C@H](F)C[C@H]2C(=O)NCCc2ccccc2)c2ccc(-c3cnc(C)nc3)cc12` [Compound 443, (2S,4R)-1-(2-(3-Acetyl-5-(2-methylpyrimidin-5-yl)-1H-indol-1-yl)acetyl)-4-fluoro-N-phenethylpyrrolidine-2-carboxamide], the half-maximal inhibitory concentration (IC50) is less than 1 µM. With `CC(=O)c1cn(CC(=O)N2C[C@H](F)C[C@H]2C(=O)NCCCc2ccccc2)c2ccc(-c3cnc(C)nc3)cc12` [Compound 444, (2S,4R)-1-(2-(3-Acetyl-5-(2-methylpyrimidin-5-yl)-1H-indol-1-yl)acetyl)-4-fluoro-N-(3-phenylpropyl)pyrrolidine-2-carboxamide] the figure was less than 1 µM.

For the compound `COc1ncc(-c2ccc3c(c2)c(C(C)=O)nn3CC(=O)N2[C@@H]3C[C@@H]3C[C@H]2C(=O)Nc2nc(Br)ccc2C)cn1` [Compound 445, (1R,3S,5R)-2-(2-(3-Acetyl-5-(2-methoxypyrimidin-5-yl)-1H-indazol-1-yl)acetyl)-N-(6-bromo-3-methylpyridin-2-yl)-2-azabicyclo[3.1.0]hexane-3-carboxamide], the IC50 was less than 1 µM. Regarding `CC(=O)c1nn(CC(=O)N2[C@@H]3C[C@@H]3C[C@H]2C(=O)Nc2nc(Br)ccc2C)c2ccc(-c3cnc(N)nc3)cc12` [Compound 446, (1R,3S,5R)-2-(2-(3-Acetyl-5-(2-aminopyrimidin-5-yl)-1H-indazol-1-yl)acetyl)-N-(6-bromo-3-methylpyridin-2-yl)-2-azabicyclo[3.1.0]hexane-3-carboxamide], the IC50 is less than 1 µM. Next, `CC(=O)c1nn(CC(=O)N2[C@@H]3C[C@@H]3C[C@H]2C(=O)Nc2ccc(F)c(Br)n2)c2ccc(-c3cnc(C)nc3)cc12` [Compound 447, (1R,3S,5R)-2-(2-(3-Acetyl-5-(2-methylpyrimidin-5-yl)-1H-indazol-1-yl)acetyl)-N-(6-bromo-5-fluoropyridin-2-yl)-2-azabicyclo[3.1.0]hexane-3-carboxamide]: less than 1 µM; `CC(=O)c1nn(CC(=O)N2C[C@H](F)C[C@H]2C(=O)Nc2nc(Br)cs2)c2ccc(-c3cnc(C)nc3)cc12` [Compound 448, (2S,4R)-1-(2-(3-Acetyl-5-(2-methylpyrimidin-5-yl)-1H-indazol-1-yl)acetyl)-N-(4-bromothiazol-2-yl)-4-fluoropyrrolidine-2-carboxamide]: less than 1 µM; `CC(=O)c1nn(CC(=O)N2C[C@H](F)C[C@H]2C(=O)Nc2nc(Br)c(C)s2)c2ccc(-c3cnc(C)nc3)cc12` [Compound 449, (2S,4R)-1-(2-(3-Acetyl-5-(2-methylpyrimidin-5-yl)-1H-indazol-1-yl)acetyl)-N-(4-bromo-5-methylthiazol-2-yl)-4-fluoropyrrolidine-2-carboxamide]: less than 1 µM. As to `COc1ncc(-c2ccc3c(c2)c(C(C)=O)nn3CC(=O)N2C[C@H](F)C[C@H]2C(=O)Nc2ccc(F)c(Br)n2)cn1` [Compound 450, (2S,4R)-1-(2-(3-Acetyl-5-(2-methoxypyrimidin-5-yl)-1H-indazol-1-yl)acetyl)-N-(6-bromo-5-fluoropyridin-2-yl)-4-fluoropyrrolidine-2-carboxamide], the IC50 was less than 1 µM. Regarding `CC(=O)c1nn(CC(=O)N2C[C@H](F)C[C@H]2C(=O)Nc2ccc(F)c(Br)n2)c2ccc(-c3cnc(N)nc3)cc12` [Compound 451, (2S,4R)-1-(2-(3-Acetyl-5-(2-aminopyrimidin-5-yl)-1H-indazol-1-yl)acetyl)-N-(6-bromo-5-fluoropyridin-2-yl)-4-fluoropyrrolidine-2-carboxamide], the 50% inhibitory concentration (IC50) is less than 1 µM.

As to `CC(=O)O[C@H]1[C@@H](C(=O)Nc2cccc(Br)n2)N(C(=O)Cn2nc(C(C)=O)c3cc(-c4cnc(C)nc4)ccc32)C[C@@H]1F` [Compound 452, (2S,3S,4S)-1-(2-(3-Acetyl-5-(2-methylpyrimidin-5-yl)-1H-indazol-1 yl)acetyl)-2-((6-bromopyridin-2-yl)carbamoyl)-4-fluoropyrrolidin-3-yl acetate], the IC50 is less than 1 µM. With `CC(=O)c1nn(CC(=O)N2C[C@H](F)C[C@H]2C(=O)Nc2nc(-c3ccccc3Cl)cs2)c2ccc(-c3cnc(C)nc3)cc12` [Compound 453, (2S,4R)-1-(2-(3-Acetyl-5-(2-methylpyrimidin-5-yl)-1H-indazol-1-yl)acetyl)-N-(4-(2-chlorophenyl)thiazol-2-yl)-4-fluoropyrrolidine-2-carboxamide] the figure was greater than 10 µM; with `CC(=O)c1nn(CC(=O)N2C3CC3(CN)C[C@H]2C(=O)Nc2cccc(Br)n2)c2ccc(-c3cnc(C)nc3)cc12` (stereo partly drawn) [Compound 454, (3S)-2-(2-(3-Acetyl-5-(2-methylpyrimidin-5-yl)-1H-indazol-1-yl)acetyl)-5-(aminomethyl)-N-(6-bromopyridin-2-yl)-2-azabicyclo[3.1.0]hexane-3-carboxamide], less than 1 µM. On to `Cc1cccc(C[C@H](O)[C@@H]2C[C@@H](F)CN2C(=O)Cn2cc(C(N)=O)c3cc(-c4cnc(C)nc4)ccc32)n1` [Compound 455, 1-(2-((2S,4R)-4-fluoro-2-((S)-1-hydroxy-2-(6-methylpyridin-2-yl)ethyl)pyrrolidin-1-yl)-2-oxoethyl)-5-(2-methylpyrimidin-5-yl)-1H-indole-3-carboxamide], for which the concentration for half-maximal inhibition (IC50) was greater than 10 µM. Take `Cc1ncc(-c2ccc3c(c2)c(C(C)F)nn3CC(=O)N2C[C@H](F)C[C@H]2C(=O)Nc2cccc(Br)n2)cn1` (stereo partly drawn) [Compound 456, (2S,4R)—N-(6-Bromopyridin-2-yl)-4-fluoro-1-(2-(3-(1-fluoroethyl)-5-(2-methylpyrimidin-5-yl)-1H-indazol-1-yl)acetyl)pyrrolidine-2-carboxamide]: the IC50 is less than 1 µM. With `COc1ncc(-c2ccc3c(c2)c(C(C)=O)nn3CC(=O)N2[C@@H]3C[C@@H]3C[C@H]2C(=O)Nc2ccc(F)c(Br)n2)cn1` [Compound 457, (1R,3S,5R)-2-(2-(3-Acetyl-5-(2-methoxypyrimidin-5-yl)-1H-indazol-1-yl)acetyl)-N-(6-bromo-5-fluoropyridin-2-yl)-2-azabicyclo[3.1.0]hexane-3-carboxamide] the figure was less than 1 µM; with `CC(=O)c1nn(CC(=O)N2[C@@H]3C[C@@H]3C[C@H]2C(=O)Nc2ccc(F)c(Br)n2)c2ccc(-c3cnc(N)nc3)cc12` [Compound 458, (1R,3S,5R)-2-(2-(3-Acetyl-5-(2-aminopyrimidin-5-yl)-1H-indazol-1-yl)acetyl)-N-(6-bromo-5-fluoropyridin-2-yl)-2-azabicyclo[3.1.0]hexane-3-carboxamide], less than 1 µM; with `CC(=O)c1nn(CC(=O)N2C[C@H](F)C[C@H]2C(=O)NCC2CC2(Cl)Cl)c2ccc(-c3cnc(C)nc3)cc12` (stereo partly drawn) [Compound 459, (2S,4R)-1-(2-(3-acetyl-5-(2-methylpyrimidin-5-yl)-1H-indazol-1-yl)acetyl)-N-((2,2-dichlorocyclopropyl)methyl)-4-fluoropyrrolidine-2-carboxamide], less than 1 µM. With `CC(=O)c1nn(CC(=O)N2C[C@H](F)C[C@H]2C(=O)NC2C[C@H]2c2ccccc2Cl)c2ccc(-c3cnc(C)nc3)cc12` (stereo partly drawn) [Compound 460, (2S,4R)-1-(2-(3-acetyl-5-(2-methylpyrimidin-5-yl)-1H-indazol-1-yl)acetyl)-N-((2S)-2-(2-chlorophenyl)cyclopropyl)-4-fluoropyrrolidine-2-carboxamide], the IC50 was less than 1 µM. Regarding `CC(=O)c1cn(CC(=O)N2C[C@H](F)C[C@H]2C(=O)NCCCCc2ccccc2)c2ccc(-c3cnc(C)nc3)cc12` [Compound 461, (2S,4R)-1-(2-(3-Acetyl-5-(2-methylpyrimidin-5-yl)-1H-indol-1-yl)acetyl)-4-fluoro-N-(4-phenylbutyl)pyrrolidine-2-carboxamide], the IC50 was less than 1 µM. Next, `CC(=O)c1nn(CC(=O)N2CC3CC2(C(=O)Nc2cccc(Br)n2)C3)c2ccc(-c3cnc(C)nc3)cc12` [Compound 462, 2-(2-(3-acetyl-5-(2-Methylpyrimidin-5-yl)-1H-indazol-1-yl)acetyl)-N-(6-bromopyridin-2-yl)-2-azabicyclo[2.1.1]hexane-1-carboxamide]: less than 1 µM. With `CC(=O)c1nn(CC(=O)N2C[C@H](F)C[C@H]2C(=O)NC2CCCC(C)(C)C2)c2ccc(-c3cnc(C)nc3)cc12` (stereo partly drawn) [Compound 464, (2S,4R)-1-(2-(3-acetyl-5-(2-methylpyrimidin-5-yl)-1H-indazol-1-yl)acetyl)-N-(3,3-dimethylcyclohexyl)-4-fluoropyrrolidine-2-carboxamide], the half-inhibitory concentration (IC50) is less than 1 µM.

On to `CC(=O)c1nn(CC(=O)N2C[C@H](F)C[C@H]2C(=O)Nc2cccc(Br)n2)c2ccc(-c3cnc(C)cn3)cc12` [Compound 465, (2S,4R)-1-(2-(3-Acetyl-5-(5-methylpyrazin-2-yl)-1H-indazol-1-yl)acetyl)-N-(6-bromopyridin-2-yl)-4-fluoropyrrolidine-2-carboxamide], for which the IC50 was less than 1 µM. With `CC(=O)c1nn(CC(=O)N2C[C@H](F)C[C@H]2C(=O)Nc2nc(Br)ccc2C)c2ccc(-c3cnc(C)cn3)cc12` [Compound 467, (2S,4R)-1-(2-(3-Acetyl-5-(5-methylpyrazin-2-yl)-1H-indazol-1-yl)acetyl)-N-(6-bromo-3-methylpyridin-2-yl)-4-fluoropyrrolidine-2-carboxamide], the IC50 was less than 1 µM. `CC(=O)c1nn(CC(=O)N2C[C@H](F)C[C@H]2C(=O)Nc2nc(Br)ccc2C)c2ccc(-c3ccnc(C)n3)cc12` [Compound 468, (2S,4R)-1-(2-(3-Acetyl-5-(2-methylpyrimidin-4-yl)-1H-indazol-1-yl)acetyl)-N-(6-bromo-3-methylpyridin-2-yl)-4-fluoropyrrolidine-2-carboxamide]: the IC50 is less than 1 µM.
